The values below come from ChEMBL document CHEMBL1152076, “Alteration of Na+ permeability in human erythrocytes as studied by 23Na-NMR and inhibition of the kidney Na+,K+-ATPase activities with saponins: Interaction of Gleditsia saponins with human erythrocyte membranes” (Bioorg Med Chem Lett, 1995).

The assay has as its target Sodium/potassium-transporting ATPase (Rattus norvegicus). The assay can be described thus: Inhibitory activity against rat kidney Na+/K+ ATPase was determined by fiske subbarow method.

Each structure is given as a SMILES string.

As a reminder, the IC50 is the concentration that gives 50% inhibition. Read a high IC50 as lower potency. With `C=C[C@@](C)(O)CC/C=C(\C)C(=O)OC1C(COCCCC2OC(CCCOOC(=O)C34CCC(C)(C)CC3C3=CCC5[C@@]6(C)CCC(OC7OC(CCOCCC8OCC(O)C(O)C8OC8OCC(O)C(O)C8O)C(O)C(O)C7O)C(C)(C)C6CC[C@@]5(C)[C@]3(C)C[C@H]4O)C(OCC3OC(C)C(OCCCCCCCCC4OCC(O)C(OC5OCC(O)C(O)C5O)C4O)C(O)C3O)C(O)C2O)OC(C)C(O)C1OC(=O)/C(=C/CC[C@](C)(O)C=C)CO` (stereo partly specified), the IC50 is 400 µM.
